Experimental data as given in patent US7026318B2 (Shionogi & Co., Ltd., priority 2000, dated 2006).
Like-named read-outs stand apart in the source and are kept apart here.

Tests used:
[1] = target: human type I enzyme (sPLA2) (Homo sapiens, UniProt P04054); assay: Inhibition test of human secretory phospholipase A2, chromogenic assay, type I enzyme; type: biochemical; settings: recombinant human sPLA2 type I, chromogenic assay, 30 min; read-out: IC50 type I
[2] = target: T1, human type II enzyme (sPLA2) (Homo sapiens, UniProt P14555); assay: Inhibition test of human secretory phospholipase A2, chromogenic assay, type II enzyme; type: biochemical; settings: human sPLA2 type II, chromogenic assay, 30 min; read-out: IC50 type II
T1 sequence (P14555 21-144): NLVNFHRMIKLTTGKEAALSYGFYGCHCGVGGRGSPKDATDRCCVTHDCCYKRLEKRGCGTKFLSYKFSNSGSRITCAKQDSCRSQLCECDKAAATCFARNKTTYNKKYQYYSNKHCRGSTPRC

human type V sPLA2 = target: T2, human type V sPLA2 (Homo sapiens, UniProt P39877); assay: Inhibition test of human secretory phospholipase A2, chromogenic assay, type V enzyme; type: biochemical; settings: human sPLA2 type V (CHO supernatant), chromogenic assay, 45 min; read-out: IC50 type V
T2 construct: made in house; unpurified culture supernatant
T2 sequence (P39877 21-138): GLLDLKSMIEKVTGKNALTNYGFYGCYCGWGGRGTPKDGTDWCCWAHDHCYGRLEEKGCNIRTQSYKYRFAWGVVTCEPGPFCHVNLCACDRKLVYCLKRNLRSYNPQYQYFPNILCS

human type X sPLA2 = target: T3, human type X sPLA2 (Homo sapiens, UniProt O15496); assay: Inhibition test of human secretory phospholipase A2, chromogenic assay, type X enzyme; type: biochemical
T3 construct: made in house; unpurified culture supernatant
T3 sequence (O15496 43-165): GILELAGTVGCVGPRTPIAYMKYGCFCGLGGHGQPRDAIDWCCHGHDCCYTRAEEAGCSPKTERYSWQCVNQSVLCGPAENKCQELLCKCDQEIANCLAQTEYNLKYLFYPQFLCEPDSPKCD

[3] = human sPLA2 type X (CHO supernatant), chromogenic assay, 30 min, read-out: IC50 type X

human type I enzyme (sPLA2), sequence (P04054 23-148): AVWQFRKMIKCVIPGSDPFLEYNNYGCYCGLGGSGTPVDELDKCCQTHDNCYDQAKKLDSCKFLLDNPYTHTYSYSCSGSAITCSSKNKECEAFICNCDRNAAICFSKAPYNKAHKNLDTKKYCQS

SMILES	melting point	IC50 [1]	IC50 [2]	IC50 (human type V sPLA2)	IC50 (human type X sPLA2; [3])	IC50 (human type X sPLA2)
CCS(=O)(=O)NC(=O)COc1cccc2c1c(C(=O)C(N)=O)c(CC(C)C)n2Cc1ccccc1	200 to 201 °C					
CCCS(=O)(=O)NC(=O)COc1cccc2c1c(C(=O)C(N)=O)c(CC(C)C)n2Cc1ccccc1	181 to 183 °C					
CC(C)Cc1c(C(=O)C(N)=O)c2c(OCC(=O)NS(=O)(=O)C(C)C)cccc2n1Cc1ccccc1	218.5 to 220 °C					
Cc1cn2c(Cc3ccccc3)c(CC(C)C)c(C(=O)C(N)=O)c2c(OCC(=O)O)n1 [Compound I-1]	206 to 208 °C	> 700 nM	> 1000 nM	> 1000 nM	32 nM	
Cc1cn2c(CC3CCCC3)c(CC(C)C)c(C(=O)C(N)=O)c2c(OCC(=O)O)n1 [Compound I-3]	193 to 194.5 °C	> 700 nM	> 1000 nM	> 1000 nM	48 nM	
CC(C)Cc1c(C(=O)C(N)=O)c2c(OCC(=O)O)cccc2n1Cc1ccc(F)cc1 [Compound I-11]	172 to 173.5 °C	> 700 nM	> 1000 nM	> 1000 nM		12 nM
CC(C)Cc1c(C(=O)C(N)=O)c2c(OCC(=O)O)cccc2n1CC1CCCCC1 [Compound I-12]	195.5 to 197 °C	> 700 nM	> 1000 nM	> 1000 nM		32 nM
Cc1cc(OCC(=O)O)c2c(C(=O)C(N)=O)c(CC(C)C)n(Cc3ccccc3)c2c1 [Compound I-13]	220 to 221.5 °C	> 700 nM	> 1000 nM	> 1000 nM		28 nM
Cc1cn2c(Cc3ccccc3)c(CC(C)C)c(C(=O)C(N)=O)c2c(OCC(=O)NS(C)(=O)=O)n1 [Compound I-16]	211 to 212 °C					
CCCS(=O)(=O)NC(=O)COc1nc(C)cn2c(Cc3ccccc3)c(CC(C)C)c(C(=O)C(N)=O)c12 [Compound I-18]	205 to 207 °C					
CC(C)Cc1c(CC(N)=O)c2c(OCC(=O)NS(=O)(=O)C(C)C)cccc2n1Cc1ccccc1 [Compound I-34]	189 to 190 °C					
Cc1cn2c(Cc3ccccc3)c(CC(C)C)c(CC(N)=O)c2c(OCC(=O)NS(C)(=O)=O)n1 [Compound I-35]	188 to 190 °C					

The next lines start with results.

melting point	IC50 [1]	IC50 [2]	IC50 (human type V sPLA2)	IC50 (human type X sPLA2; [3])	SMILES	IC50 (human type X sPLA2)
219.5 to 221 °C					CCCCS(=O)(=O)NC(=O)COc1cccc2c1c(C(=O)C(N)=O)c(CC(C)C)n2Cc1ccccc1	
209 to 210 °C	> 700 nM	> 1000 nM	> 1000 nM	43 nM	Cc1cn2c(CC3CCCCC3)c(CC(C)C)c(C(=O)C(N)=O)c2c(OCC(=O)O)n1 [Compound I-2]	
205 to 207 °C					CCCCc1c(C(=O)C(N)=O)c2c(OCC(=O)O)nc(C)cn2c1Cc1ccccc1 [Compound I-5]	
258 to 260 °C					Cc1cn2c(Cc3ccccc3)c(Cc3ccccc3)c(C(=O)C(N)=O)c2c(OCC(=O)O)n1 [Compound I-7]	
245 to 247 °C	> 700 nM	> 1000 nM	> 1000 nM	22 nM	Cc1cc(OCC(=O)O)c2c(C(=O)C(N)=O)c(CC(C)C)c(Cc3ccccc3)n2n1 [Compound I-9]	
200.5 to 202 °C					CC(C)Cc1c(C(=O)C(N)=O)c2c(OCC(=O)O)cccc2n1-c1ccccc1 [Compound I-14]	
214 to 215 °C					CCS(=O)(=O)NC(=O)COc1nc(C)cn2c(Cc3ccccc3)c(CC(C)C)c(C(=O)C(N)=O)c12 [Compound I-17]	
196 to 198 °C					Cc1cn2c(Cc3ccccc3)c(CC(C)C)c(C(=O)C(N)=O)c2c(OCC(=O)NS(=O)(=O)C(C)C)n1 [Compound I-19]	
	> 700 nM	> 1000 nM	> 1000 nM	46 nM	Cc1cc(OCC(=O)NS(=O)(=O)c2ccccc2)c2c(C(=O)C(N)=O)c(CC(C)C)c(Cc3ccccc3)n2n1 [Compound I-32]	
162 to 163 °C					Cc1cn2c(Cc3ccccc3)c(CC(C)C)c(CC(N)=O)c2c(OCC(=O)NS(=O)(=O)C(C)C)n1 [Compound I-36]	
